Values of other authors, collected in patent publication US20020034548A1, “STABILIZED ASCORBIC COMPOSITION” (priority 1998, published 2002).

How the values were obtained:
[1] = pH 5.0
[2] = 5% ascorbic acid solution

- redox potential [1]: +0.127 V
- ascorbic acid deprotonated (2% aqueous solution at 25° C.): About 2.4%
- pK1 (aqueous solution, room temperature): 4.17
- time to completely decay into oxidized form [2]: a few days
Structure (SMILES): O=C1O[C@H]([C@@H](O)CO)C(O)=C1O [L-ascorbic acid]
